US10730851B2, “Polymorph of triaryldimethylpiperazine dihydrochloride and preparation method and application thereof” (priority 2016, dated 2020)
Structures can show the parent of a compound that is named as a salt. Where two headings read alike, the source gives them in different places.

Key:
[1] = Relative bioavailability test; assay type: in vivo, SPF-grade SD rats; conditions: rat, in vivo, po
Method: HPLC-MS/MS method is used to detect the blood drug concentration of target drugs in SPF-grade SD rats, and the relative bioavailability of 0.5% CMC-Na suspension of a free base and 0.5% CMC-Na solution of a polymorph form P are calculated and compared.
60.46 mg of a free base is accurately weighed and placed into a 15 mL centrifuge tube, 12 mL of 0.5% CMC-Na solution is measured and added into the centrifuge tube with a measuring cylinder, vortexed for 5 min, and ultrasonically dispersed for 15 min to obtain 0.5% CMC-Na suspension of free base with a concentration of 5.04 mg/ml, which is currently formulated when using and vibrated at any time during administration.
60.05 mg of a polymorph form P is accurately weighed and placed into a 15 mL centrifuge tube, 12 mL of 0.5% CMC-Na solution is measured and added into the centrifuge tube with a measuring cylinder, vortexed for 5 min, and ultrasonically dispersed for 15 min to obtain 0.5% CMC-Na solution of 5.00 mg/mL polymorph form P, which is currently formulated when using.
Twelve SPF-grade SD rats are selected and randomly divided into a free base group and a polymorph form P group with 6 rats in each group (both male and female). Animals are fasted for 12 h but have free access to water. Weighing is performed and, the administration volume of each rat is calculated according to the animal weight, so that the administration dose is 20 mg/kg·bw. During administration, the drugs are each administrated by gavage, and 0.5% CMC-Na suspension/solution of the above two target drugs are extracted by 2 mL syringe respectively. The gavage needle is inserted into the stomach from the corner of the rat's mouth and pushed the solution thereto.
Blood is collected from the fundus venous plexus of rats at 0.2 mL before (0 h) and 0.5, 1, 2, 4, 6, 8, 12 and 24 h after administration, anticoagulated with 300 IU/mL heparin (1:20) and centrifuged (3000 r/min) for 15 min. After plasma separation, the blood drug concentration of the target drug is determined by HPLC-MS/MS.
Referring to the above-mentioned bioavailability test of the polymorph form P, the bioavailability tests of polymorph forms F, O, B and J are conducted respectively. Different from the bioavailability test of the polymorph form P, rats are given 0.5% CMC-Na solution of the polymorph form F, O, B or J by gavage respectively. Other operations are the same as the above bioavailability test.

[2] = Dynamic solubility test in water, SGF, FeSSIF, FaSSIF; assay type: physicochemical; conditions: for pH in clear solution: dihydrochloride
Method: The dynamic solubility of a free base, polymorph forms B, P, F, J and O in water or a biological medium such as Stimulated Gastric Fluid (SGF), Fed State Simulated Intestinal Fluid (FeSSIF) or Fasted State Simulated Intestinal Fluid (FaSSIF) is determined.
0.2 g sodium chloride and 0.1 g Triton X-100 is weighed and placed into a 100 mL volumetric flask. Purified water is added to dissolve. A stir is performed until the solid is completely dissolved. About 135 μL concentrated hydrochloric acid solution (37%, […]) is added, then the pH is adjusted to 1.8 with […] hydrochloric acid or 1 mmoL/L sodium hydroxide. Finally, the volume is fixed with purified water to obtain Stimulated Gastric Fluid (SGF) for later use.
Each of 0.41 mL glacial acetic acid, 0.20 g sodium hydroxide and 0.59 g sodium chloride is weighed and placed to a 50 mL volumetric flask. About 48 mL purified water is added to dissolve, the pH is adjusted to 5.0 with 1 mmoL/L hydrochloric acid or 1 mmoL/L sodium hydroxide, and the volume is fixed with purified water. Then 0.56 g of Simulated Intestinal Fluid powder (SIF powder for short, which is composed of […] with a molar ratio of 4:1) is added, stirred and ultrasonically dissolved to obtain Fed State Simulated Intestinal Fluid (FeSSIF) for later use.
Each of 0.17 g of anhydrous sodium dihydrogen phosphate (NaH2PO4), 0.021 g of sodium hydroxide and 0.31 g of sodium chloride is weighed and placed into a 50 mL volumetric flask. About 48 mL of purified water is added to dissolve, the pH is adjusted to 6.5 with 1 mmoL/L hydrochloric acid or 1 mmoL/L sodium hydroxide, and the volume is fixed with purified water. 0.11 g of SIF powder is added, stirred and ultrasonically dissolved to obtain Fasted State Simulated Intestinal Fluid (FaSSIF) for later use.
Each 30 mg of the free base, and polymorph forms B, P, F, J and O are weighed. 3 mL of purified water, Stimulated Gastric Fluid (SGF), Fed State Simulated Intestinal Fluid (FeSSIF) or Fasted State Simulated Intestinal Fluid (FaSSIF)) is added and oscillated at room temperature. 0.6 mL of suspension is taken each time at a set time point, filtered and separated with a 0.45 μm nylon filter membrane, then XRPD characterization is performed on the solid sample, and the concentration in the clear solution is measured by HPLC.

[3] = Dynamic moisture adsorption; assay type: physicochemical

SMILES | bioavailability compared with free base [1] | solubility compared with the free base [2] | pH in clear solution ([2]; FaSSIF, Time 1) | pH in clear solution ([2]; FaSSIF, Time 2) | pH in clear solution ([2]; FaSSIF, Time 4) | pH in clear solution ([2]; FaSSIF, Time 24) | pH in clear solution ([2]; FeSSIF, Time 1) | pH in clear solution ([2]; FeSSIF, Time 2) | pH in clear solution ([2]; FeSSIF, Time 4) | pH in clear solution ([2]; FeSSIF, Time 24) | pH in clear solution ([2]; SGF, Time 1) | pH in clear solution ([2]; SGF, Time 2) | pH in clear solution ([2]; SGF, Time 4) | pH in clear solution ([2]; SGF, Time 24) | pH in clear solution ([2]; Water, Time 1) | pH in clear solution ([2]; Water, Time 2) | pH in clear solution ([2]; Water, Time 4) | pH in clear solution ([2]; Water, Time 24) | Crystal form of insoluble solid sample ([2]; pH 1.8) | solubility compared with the free base ([2]; pH 1.8) | further results
CC1CCN(C(=O)c2ccc([C@H](c3cccc(O)c3)N3C[C@@H](C)N(Cc4cccc(F)c4)C[C@@H]3C)cc2)CC1 [Polymorph form F, (4-((R)-((2S,5R)-4-(3-fluorobenzyl)-(2,5-dimethylpiperazine-1-yl)(3-hydroxyphenyl)methyl)phenyl)(4-methylpiperidine-1-yl)methanone dihydrochloride] | better bioavailability than free base | significantly improved | 3.5 | 4.6 | 4.2 | 4.5 | 4.8 | 4.9 | 4.9 | 4.9 | 1.6 | 1.6 | 1.6 | 1.4 | 1.8 | 1.9 | 1.8 | 1.5 | invariability | close to or slightly improved | Crystal form of insoluble solid sample ([2]; pH 5): invariability; Crystal form of insoluble solid sample ([2]; pH 6.5): invariability
CC1CCN(C(=O)c2ccc([C@H](c3cccc(O)c3)N3C[C@@H](C)N(Cc4cccc(F)c4)C[C@@H]3C)cc2)CC1 [Polymorph form O, (4-((R)-((2S,5R)-4-(3-fluorobenzyl)-(2,5-dimethylpiperazine-1-yl)(3-hydroxyphenyl)methyl)phenyl)(4-methylpiperidine-1-yl)methanone dihydrochloride] | better bioavailability than free base | significantly improved | 2.2 | 2.0 | 2.4 | 2.2 | 5.0 | 4.8 | 5.0 | 5.2 | 1.5 | 1.6 | 1.6 | 1.7 | 1.9 | 1.8 | 1.9 | 1.4 | – | close to or slightly improved | Crystal form change under dynamic moisture adsorption [3]: change into amorphous; Crystal form of insoluble solid sample [2]: invariability; Solubility [2]: 6200 µg/mL
CC1CCN(C(=O)c2ccc([C@H](c3cccc(O)c3)N3C[C@@H](C)N(Cc4cccc(F)c4)C[C@@H]3C)cc2)CC1 [Polymorph form P, (4-((R)-((2S,5R)-4-(3-fluorobenzyl)-(2,5-dimethylpiperazine-1-yl)(3-hydroxyphenyl)methyl)phenyl)(4-methylpiperidine-1-yl)methanone dihydrochloride] | – | significantly improved | 3.0 | 2.7 | 2.2 | 2.6 | 5.0 | 4.9 | 5.0 | 4.6 | 1.6 | 1.7 | 1.6 | 1.5 | 1.9 | 1.9 | 1.9 | 1.6 | invariability | close to or slightly improved | AUC(0-t) ([1]; both sexes, SD, 20 mg/kg): 584 ng·h/mL; Cmax ([1]; both sexes, SD, 20 mg/kg): 98.1 ± 25.2 ng/mL; Tmax ([1]; both sexes, SD, 20 mg/kg): 1.3 ± 0.5 h; bioavailability ([1]; both sexes, SD, 20 mg/kg): 202%; t1/2z ([1]; both, SD, 20 mg/kg): 2.5 ± 0.8 h; Solubility ([2]; pH 1.8, simulated gastric fluid, thermodynamic from solid, Solubility): 3400 µg/mL; Crystal form of insoluble solid sample ([2]; pH 5): invariability; Solubility ([2]; pH 5, fessif, thermodynamic from solid, Solubility): 430 µg/mL; Crystal form of insoluble solid sample ([2]; pH 6.5): invariability
CC1CCN(C(=O)c2ccc([C@H](c3cccc(O)c3)N3C[C@@H](C)N(Cc4cccc(F)c4)C[C@@H]3C)cc2)CC1 [Polymorph form J, (4-((R)-((2S,5R)-4-(3-fluorobenzyl)-(2,5-dimethylpiperazine-1-yl)(3-hydroxyphenyl)methyl)phenyl)(4-methylpiperidine-1-yl)methanone dihydrochloride] | better bioavailability than free base | significantly improved | 2.8 | 3.0 | 2.8 | 2.6 | 4.8 | 5.0 | 4.9 | 4.7 | 1.7 | 1.5 | 1.5 | 1.6 | 1.8 | 1.7 | 1.7 | 1.4 | – | close to or slightly improved | Crystal form of insoluble solid sample [2]: amorphism
